Assay results from PubChem BioAssay AID1963959 (Molecular Pharmacology Branch, DTP, NCI, 2024).

Tested on: T-47D spheroids with HUVEC/MSC, viability
Assay: Anticancer human tumor T-47D cell line growth inhibition [PI3K];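 also: spheroids exposed to agents for seven days before reading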;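 as to viability, T/C: percent of DMSO vehicle control luminescence so 100% = untreated growth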
Settings: for IC50: curve of first compound; for viability, T/C: stronger effect = lower value; active = viability on the fitted dose curve at most 10% of control; inactive = the rest
Summary of the method: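 Viability of mixed-cell spheroids was determined after exposure to pairwise combinations, one partner being inavolisib, alpelisib, duvelisib or copanlisib. Highest tested concentration matched clinical Cmax where known and 10 microM where not, descending in half-log steps.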

[1] = second compound 0.00316 µM, first compound 0.0316 µM
[2] = second compound 0.00316 µM, first compound 0.1 µM
[3] = second compound 0.00316 µM, first compound 0.316 µM
[4] = second compound 0.00316 µM, first compound 1 µM
[5] = second compound 0.00316 µM, first compound 3.16 µM
[6] = second compound 0.00316 µM, first compound 10 µM
[7] = second compound 0.01 µM, first compound 0.0316 µM
[8] = second compound 0.01 µM, first compound 0.1 µM
[9] = second compound 0.01 µM, first compound 0.316 µM
[10] = second compound 0.01 µM, first compound 1 µM
[11] = second compound 0.01 µM, first compound 3.16 µM
[12] = second compound 0.01 µM, first compound 10 µM
[13] = second compound 0.0316 µM, first compound 0.0316 µM
[14] = second compound 0.0316 µM, first compound 0.1 µM
[15] = second compound 0.0316 µM, first compound 0.316 µM
[16] = second compound 0.0316 µM, first compound 1 µM
[17] = second compound 0.0316 µM, first compound 3.16 µM
[18] = second compound 0.0316 µM, first compound 10 µM
[19] = second compound 0.1 µM, first compound 0.0316 µM
[20] = second compound 0.1 µM, first compound 0.1 µM
[21] = second compound 0.1 µM, first compound 0.316 µM
[22] = second compound 0.1 µM, first compound 1 µM
[23] = second compound 0.1 µM, first compound 3.16 µM
[24] = second compound 0.1 µM, first compound 10 µM
[25] = second compound 0.316 µM, first compound 0.0316 µM
[26] = second compound 0.316 µM, first compound 0.1 µM
[27] = second compound 0.316 µM, first compound 0.316 µM
[28] = second compound 0.316 µM, first compound 1 µM
[29] = second compound 0.316 µM, first compound 3.16 µM
[30] = second compound 0.316 µM, first compound 10 µM
[31] = second compound 1 µM, first compound 0.0316 µM
[32] = second compound 1 µM, first compound 0.1 µM
[33] = second compound 1 µM, first compound 0.316 µM
[34] = second compound 1 µM, first compound 1 µM
[35] = second compound 1 µM, first compound 3.16 µM
[36] = second compound 1 µM, first compound 10 µM

CC1(C)CCC(Nc2ncc(C(F)(F)F)c(-c3c[nH]c4c(P(C)(C)=O)c(C#N)ccc34)n2)CN1 (stereo unspecified) + CC(Nc1ccc2c(c1)OCCn1cc(N3C(=O)OCC3C(F)F)nc1-2)C(N)=O
4.42 µM: IC50 (second compound 0.1 µM)
5.84 µM: IC50 (second compound 0.0316 µM)
inactive: viability, T/C [1] 66.4% | viability, T/C [2] 70% | viability, T/C [3] 59.1% | viability, T/C [4] 73.5% | viability, T/C [5] 76.9% | viability, T/C [6] 48.8% | viability, T/C [7] 72.3% | viability, T/C [8] 68.3% | viability, T/C [9] 67.5% | viability, T/C [10] 72.3% | viability, T/C [11] 82.4% | viability, T/C [12] 47.6% | viability, T/C [13] 65.4% | viability, T/C [14] 68.3% | viability, T/C [15] 60.2% | viability, T/C [16] 68.7% | viability, T/C [17] 67% | viability, T/C [18] 36.2% | viability, T/C [19] 62% | viability, T/C [20] 65.2% | viability, T/C [21] 46.3% | viability, T/C [22] 47.3% | viability, T/C [23] 61.4% | viability, T/C [24] 34.2% | viability, T/C [25] 53.1% | viability, T/C [26] 42.6% | viability, T/C [27] 37.8% | viability, T/C [28] 36.2% | viability, T/C [29] 40.4% | viability, T/C [30] 17.1% | viability, T/C [31] 40.8% | viability, T/C [32] 30.8% | viability, T/C [33] 29.7% | viability, T/C [34] 29.5% | viability, T/C [35] 26.4% | viability, T/C [36] 6.28%
< 0.0316 µM: IC50 (second compound 0.316 µM) | IC50 (second compound 1 µM)
> 10 µM: IC50 (second compound 0.00316 µM) | IC50 (second compound 0.01 µM)

Cn1ncc(Cl)c1-c1cc(C(=O)NC(CN)Cc2cccc(F)c2)sc1Cl (stereo unspecified) + CC(Nc1ccc2c(c1)OCCn1cc(N3C(=O)OCC3C(F)F)nc1-2)C(N)=O
inactive: viability, T/C [1] 91.4% | viability, T/C [2] 86.4% | viability, T/C [3] 80.5% | viability, T/C [4] 81.8% | viability, T/C [5] 73.7% | viability, T/C [6] 81.5% | viability, T/C [7] 91.2% | viability, T/C [8] 89.6% | viability, T/C [9] 82.9% | viability, T/C [10] 70.2% | viability, T/C [11] 65.5% | viability, T/C [12] 87.9% | viability, T/C [13] 82.1% | viability, T/C [14] 82.7% | viability, T/C [15] 68.1% | viability, T/C [16] 67.8% | viability, T/C [17] 59.5% | viability, T/C [18] 90.9% | viability, T/C [19] 95.7% | viability, T/C [20] 92.7% | viability, T/C [21] 71.8% | viability, T/C [22] 55.6% | viability, T/C [23] 58.9% | viability, T/C [24] 75% | viability, T/C [25] 71.4% | viability, T/C [26] 59.7% | viability, T/C [27] 60.8% | viability, T/C [28] 49.7% | viability, T/C [29] 47.2% | viability, T/C [30] 64.6% | viability, T/C [31] 50.8% | viability, T/C [32] 49.5% | viability, T/C [33] 49.8% | viability, T/C [34] 45.5% | viability, T/C [35] 50.3% | viability, T/C [36] 59.3%
> 10 µM: IC50 (second compound 0.00316 µM) | IC50 (second compound 0.01 µM) | IC50 (second compound 0.0316 µM) | IC50 (second compound 0.1 µM) | IC50 (second compound 0.316 µM)
< 0.0316 µM: IC50 (second compound 1 µM)

Cn1nccc1Nc1nccc(-c2ccn(C(CO)c3ccc(Cl)c(F)c3)c(=O)c2)n1 (stereo unspecified) + CC(Nc1ccc2c(c1)OCCn1cc(N3C(=O)OCC3C(F)F)nc1-2)C(N)=O
inactive: viability, T/C [1] 98.6% | viability, T/C [2] 97.4% | viability, T/C [3] 93.3% | viability, T/C [4] 96% | viability, T/C [5] 113% | viability, T/C [6] 109% | viability, T/C [7] 106% | viability, T/C [8] 92.8% | viability, T/C [9] 104% | viability, T/C [10] 106% | viability, T/C [11] 111% | viability, T/C [12] 99.6% | viability, T/C [13] 86.1% | viability, T/C [14] 85.2% | viability, T/C [15] 93.2% | viability, T/C [16] 99.7% | viability, T/C [17] 105% | viability, T/C [18] 85.7% | viability, T/C [19] 103% | viability, T/C [20] 100% | viability, T/C [21] 89.4% | viability, T/C [22] 92.9% | viability, T/C [23] 87% | viability, T/C [24] 92.3% | viability, T/C [25] 71.8% | viability, T/C [26] 71.3% | viability, T/C [27] 65.4% | viability, T/C [28] 67% | viability, T/C [29] 69.4% | viability, T/C [30] 71.3% | viability, T/C [31] 65.7% | viability, T/C [32] 60% | viability, T/C [33] 52% | viability, T/C [34] 47.4% | viability, T/C [35] 58.1% | viability, T/C [36] 57.1%
> 10 µM: IC50 (second compound 0.00316 µM) | IC50 (second compound 0.01 µM) | IC50 (second compound 0.0316 µM) | IC50 (second compound 0.1 µM) | IC50 (second compound 0.316 µM) | IC50 (second compound 1 µM)
